Laboratory results: patent publication US11311632B2, “Viral vectors for prophylaxis and therapy of hemoglobinopathies” (Cornell University, priority 2015, dated 2022)
Like-named read-outs stand apart in the source and are kept apart here.

Assays:
SCD erythroblasts = experiment: Erythroid cell count / viability (benzidine+ cells) of treated SCD erythroblasts; settings: same treatments and doses as HbF induction comparison
Method: (§1) CD34+ cells selection from blood samples was performed by immunomagnetic separation, using the CD34 microbeads kit (Miltenyi Biotec Inc., Auburn, Calif.). These cells were then expanded following a modified version of the protocol described by Leberbauer and colleagues. Cells were seeded in 5 mL of serum-free StemSpan with 50 μL of StemSpan CC-100 cytokine cocktail (both from Stemcell Technologies, Vancouver, BA, Canada), 2 U/mL Erytrhopoietin (Amgen, Thousand Oaks, Calif.), 10^-6 M dexamethasone (Sigma) and 1% penicillin streptomycin. CD34+ cultures were kept undifferentiated by refreshing the medium twice a week and density gradient centrifugation was used to remove both dead and spontaneously differentiating cells. At this stage cells were either frozen (with 50% characterized Hyclone FBS, 10% DMSO, Sigma, and 40% Iscove's Modified DMEM, Cellgro), or used for experiments. After 10 days in phase I, cells were transferred into phase II media containing α-modified essential medium supplemented with 30% fetal calf serum and 10^-5 M β-mercaptoethanol. Erythropoietin was added (5 U/mL) to stimulate erythroid differentiation.

[1] = tested on: CD34+-derived SCD erythroid cells; experiment: Hemoglobin (HbF, HbS, HbA2) content by HPLC in differentiated CD34+-derived SCD erythroid cells; assay type: cell-based, human
Source text: To obtain the data presented here, we used the lentiviral vector pCL-ZF-Ldb1, (FIG. 11, top vector map), which carries a zinc-finger protein that specifically binds the γ-globin promoters, fused to the self-association (SA) domain of Ldb1, as well as a green fluorescent protein under the control of the erythroid specific ankyrin promoter. […] Cell, 2014. 158(4): p. 849-60].
In particular, we analyzed the mRNA and protein content of erythroblasts derived from 10 SCD subjects. CD34+ cells isolated from peripheral blood mononuclear cells (PBMCs) were frozen and used for independent replicate experiments. Infection with pCL-ZF-Ldb1 was performed on pro-erythroblast within the first 10 days of the expansion phase.
A scheme of the experimental procedures is illustrated in FIG. 16. […] Exp Hematol, 2005. 33(12): p. […] J Clin Invest, 2008. 118(1): p. […] Nat Med, 2013. 19(3): p. 291-4]. Studies were performed on day 8 of differentiation phase, at the orthochromatophilic stage when high amounts of hemoglobin were accumulated.
as §1

[2] = SCD erythroid cells, summary in description
[3] = day 8 of differentiation, same treatments and doses as net HbF increase

Compound	viability compared to untreated samples (SCD erythroblasts)	net HbS decrease ([1]; 192 h)	net HbF increase ([1]; 192 h, 30 µM)	net HbF increase [1]	induction of HbF (qualitative summary) [1, 2]	net HbS decrease [1, 3]	induction of HbF (qualitative summary) [1]	net HbS decrease [1]
Nc1cccc2c1C(=O)N(C1CCC(=O)NC1=O)C2=O (stereo not shown) [pomalidomide]	reduced viability	11.61−%±9.27	11.84%±9.02	–	–	–	–	–
CCCC(=O)[O-].[Na+] [butyrate, sodium butyrate]	reduced viability	–	–	4.84%±5.03	marginal HbF induction	−4.90%±7.94	–	–
NC(=O)NO [hydroxyurea]	reduced viability	–	–	–	marginal HbF induction	−3.48%±4.68	–	–
N[C@@H]1C[C@H]1c1ccccc1 (racemic) [tranyl-cypromine, tranylcypromine]	–	–	–	8.08%±6.28	–	–	intermediate effect	−6.93%±6.64
